The text below walks through data of patent US20060194811A1, “Pyrimidine derivatives” (KYOWA HAKKO KOGYO CO., LTD., priority 2003, published 2006).

Test [1] concerns the target T1, TARC binding to Hut78 cells (Homo sapiens, UniProt P51679).
T1 construct: host or cells: Hut78 cells (whole cells)
T1 sequence (P51679 1-360): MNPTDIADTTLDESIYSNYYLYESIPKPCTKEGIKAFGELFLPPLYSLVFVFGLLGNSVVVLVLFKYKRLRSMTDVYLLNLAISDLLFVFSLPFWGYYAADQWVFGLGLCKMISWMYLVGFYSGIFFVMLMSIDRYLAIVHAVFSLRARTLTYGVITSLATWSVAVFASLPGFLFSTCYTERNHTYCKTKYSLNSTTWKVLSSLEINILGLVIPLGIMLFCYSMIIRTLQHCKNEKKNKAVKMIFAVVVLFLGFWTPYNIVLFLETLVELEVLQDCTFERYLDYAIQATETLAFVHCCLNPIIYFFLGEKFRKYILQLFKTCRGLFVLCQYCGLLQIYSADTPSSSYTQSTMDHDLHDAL
Briefly: Inhibitory activity on binding of [125I]-TARC to Hut78 cells. As to conditions: for inhibition at 1 µM: read-out: The Binding Inhibitory Rates at 1 μmol/L (%). The method, then: Inhibitory Activity on Binding of [^125I]-TARC to Hut78 Cells
The RPMI-1640 medium (Sigma-Aldrich Japan) containing 20 mmol/L HEPES [4-(2-hydroxyethyl)-1-piperazinylethanesulfonic acid; HEPES, Nacalai Tesque, Inc.] and 0.1 w/v % bovine serum albumin (SEIKAGAKU CORPORATION) was adjusted to pH 7.0 with sodium hydrogencarbonate (Wako Pure Chemical Industries, Ltd.) to yield a binding/wash buffer. In a 96-well round-bottomed plate (Corning Costar Corporation) were placed 60 μL of a suspension of Hut78 cells (ATCC No. TIB-161) (3×10^5 cells) in the binding/wash buffer, 20 μL of a solution of a test compound and 20 μL of a solution of 810 Bq of [^125I]-TARC (Amersham Biosciences K.K.) diluted with the binding/wash buffer up to the total aliquot of 100 μL, followed by reaction at room temperature for two hours. The solution of the test compound had been prepared by dissolving the test compound in dimethyl sulfoxide (Nacalai Tesque, Inc.) to a concentration of 10 mmol/L, and diluting the solution with the binding/wash buffer to a series of concentrations. The nonspecific binding was determined by a binding assay in the presence of a sufficient amount of unlabeled TARC. The total binding was defined as a binding in the case where dimethyl sulfoxide (Nacalai Tesque, Inc.) was added, instead of the test compound, in the same concentration (0.1 v/v %). After binding [^125I]-TARC to Hut78 cells, 50 μL of a polyethyleneimine solution (Nacalai Tesque, Inc.) diluted to 0.3 w/v % with the binding/wash buffer was added each of wells of a glass filter (Unifilter GF/B96, Packard BioScience Company), was rapidly filtrated using Filtermate 196 (Packard BioScience Company) and washed with the binding/wash buffer at 4° C. to thereby separate the radioactive ligand which is not bound to the cells. Microscinti 20 (Packard BioScience Company) was placed in each well at 50 μL/well, and the radioactivity on the glass filter was determined using Topcount NXT™ (Packard BioScience Company). The binding inhibitory rates (%) of the test compounds were determined by calculation according to the following equation: [formula] Total binding: [^125I]-TARC binding radioactivity without addition of the test compound Binding upon addition of test compound: [^125I]-TARC binding radioactivity at respective concentration upon addition of test compound
Nonspecific binding: [^125I]-TARC binding radioactivity upon addition of unlabeled TARC

The subject of test [2] is CD4-positive T cells and eosinophils in the bronchoalveolar lavage fluid. The test is described as follows: Inhibitory activities on antigen-induced cellular infiltration (ovalbumin-sensitized mice, bronchoalveolar lavage fluid). The test is classed as in vivo, BALB/c mice. The protocol:
Inhibitory Activities on Antigen-Induced Cellular Infiltration and Cytokine Production
BALB/c mice were sensitized by intraperitoneally administrating 50 μg of ovalbumin (Sigma-Aldrich Japan) and 1 mg of aluminum hydroxide (Wako Pure Chemical Industries, Ltd.) and further sensitized in the same manner on the 7th day from the first sensitization (0 day). From on the 23rd day, the mice were allowed to inhale a 1% ovalbumin physiological saline solution [prepared by dissolving ovalbumin in physiological saline (Otsuka Pharmaceutical Co., Ltd.) to a concentration 1%] using Supersonic Nebulizer NE-U 12 (OMRON Corporation) for 30 minutes once per 2 days (antigen nebulization). DMSO (Kanto Kagaku), Tween 80 (Wako Pure Chemical Industries), and 10 mmol/L acetic acid buffer containing 0.9% sodium chloride were mixed at a ratio of 5 to 5 to 90, whereby a liquid (an administration solvent) was prepared. Each test compound was dissolved in the administration solvent, whereby a solution for subcutaneous administration was prepared. The mice were grouped into test compound-administered groups and a control group. The test compound was subcutaneously administered to the mice of each of the test compound-administered groups at a dose of 30 mg/kg and the administration solvent was subcutaneously administered to the mice of the control group 30 minutes prior to the fourth antigen nebulization and after 4 hours from the fourth antigen nebulization. 8 hours after the fourth antigen nebulization, the bronchoalveolar lavage of each mouse was performed to obtain a bronchoalveolar lavage fluid. The number of CD4-positive T cells and eosinophils in the bronchoalveolar lavage fluid were counted. 10 mice were subjected to the each group in the test.

Setting [3] is: test compound 1 μmol/L, [125I]-TARC, Hut78 cells, room temperature, two hours.

Like-named read-outs stand apart in the source and are kept apart here.

Consider `CC[N+]1(C2CCN(c3ncc(-c4ccc(F)cc4F)c(NCc4ccc(F)cc4F)n3)CC2)CCCCC1.[I-]` [Compound 73, 4-(2,4-difluorobenzylamino)-5-(2,4-difluorophenyl)-2-[4-(1-ethylpiperidinio)piperidino]pyrimidine iodide], for which the “The Binding Inhibitory Rates at 1 μmol/L (%)” value in test [1] (setting [3]) is on record as 99%.
For the molecule `Fc1ccc(-c2cnc(N3CCC(N4CCCCC4)CC3)nc2NCc2c(F)cccc2Cl)c(F)c1` [Compound 61, 4-(2-chloro-6-fluorobenzylamino)-5-(2,4-difluorophenyl)-2-(4-piperidinopiperidino)pyrimidine], the inhibition at 1 µM in test [1] (setting [3]) worked out at 82%.
For the molecule `C=CC[N+]1(C2CCN(c3ncc(-c4ccc(F)cc4F)c(NCc4ccc(F)cc4F)n3)CC2)CCCCC1.[Br-]` [Compound 75, 2-[4-(1-allylpiperidinio)piperidino]-4-(2,4-difluorobenzylamino)-5-(2,4-difluorophenyl)pyrimidine bromide], in test [1] (setting [3]), the “The Binding Inhibitory Rates at 1 μmol/L (%)” value was 97%.
“4-(2,4-difluorobenzylamino)-5-(2,4-difluorophenyl)-2-[4-(1-methylpiperidinio)piperidino]pyrimidine iodide [Compound 72]”: the “The Binding Inhibitory Rates at 1 μmol/L (%)” value in test [1] (setting [3]) turned out to be 96%.
Take `Fc1ccc(-c2cnc(N3CCC(N4CCCCC4)CC3)nc2NCc2c(F)cccc2F)c(F)c1` [Compound 40, 4-(2,6-difluorobenzylamino)-5-(2,4-difluorophenyl)-2-(4-piperidinopiperidino)pyrimidine]: the inhibition at 1 µM in test [1] (setting [3]) is 89%.
As for `NC(=O)C1CCCN(C2CCN(c3ncc(-c4ccc(F)cc4F)c(NCc4ccc(F)cc4F)n3)CC2)C1` (centres unmarked) [Compound 8, 2-[4-(3-carbamoylpiperidino)piperidino]-4-(2,4-difluorobenzylamino)-5-(2,4-difluorophenyl)pyrimidine], in test [1] (setting [3]), the inhibition at 1 µM is 92%. For the same molecule, the “number of eosinophils in a bronchoalveolar lavage fluid obtained from each mouse” value in test [2] (30 mg/kg subcutaneously 30 minutes prior to and 4 hours after fourth antigen nebulization, lavage 8 hours after, mean±standard error, control (1.5±0.1)×10^5) is given as “(0.6±0.1)×10^5”. Moreover, the “number of CD4-positive T cells in a bronchoalveolar lavage fluid obtained from each mouse” value in test [2] (30 mg/kg subcutaneously 30 minutes prior to and 4 hours after fourth antigen nebulization, lavage 8 hours after, mean±standard error, control (1.9±0.2)×10^4) is recorded as “(0.6±0.1)×10^4”. The “number of CD4-positive T cells less than that of the control group” value in test [2] (30 mg/kg subcutaneously, bronchoalveolar lavage fluid, P<0.0001, Aspin-Welch test) was 68%. Moreover, the “number of eosinophils less than that of the control group” value in test [2] (30 mg/kg subcutaneously, bronchoalveolar lavage fluid, P<0.0001, Student's test) is 57%.
On to `CC1CCCN(C2CCN(c3ncc(-c4ccc(F)cc4F)c(NCc4c(F)cccc4F)n3)CC2)C1` (centres unmarked) [Compound 15, 4-(2,6-difluorobenzylamino)-5-(2,4-difluorophenyl)-2-[4-(3-methylpiperidino)piperidino]pyrimidine], for which the inhibition at 1 µM in test [1] was 90%.
On to `CC1CCCN(C2CCN(c3ncc(-c4ccc(F)cc4F)c(NCc4ccc(F)cc4F)n3)CC2)C1` (centres unmarked) [Compound 1, 4-(2,4-difluorobenzylamino)-5-(2,4-difluorophenyl)-2-[4-(3-methylpiperidino)piperidino]pyrimidine], for which the inhibition at 1 µM in test [1] is 91%.
As for `Fc1ccc(-c2cnc(N3CCC(N4CCCCC4)CC3)nc2NCc2ccc(Cl)cc2F)c(F)c1` [Compound 58, 4-(4-chloro-2-fluorobenzylamino)-5-(2,4-difluorophenyl)-2-(4-piperidinopiperidino)pyrimidine], in test [1] (setting [3]), the inhibition at 1 µM amounted to 81%.
For the molecule `CC1CCCCN1C1CCN(c2ncc(-c3ccc(F)cc3F)c(NCc3ccc(F)cc3F)n2)CC1` (centres unmarked) [Compound 3, 4-(2,4-difluorobenzylamino)-5-(2,4-difluorophenyl)-2-[4-(2-methylpiperidino)piperidino]pyrimidine], the inhibition at 1 µM in test [1] came to 93%.
